Molecules are shown by their SMILES. Counter-ions that a name gives are not always drawn.

For experiment [1], the system named is ponto-geniculo-occipital (P.G.O.) waves induced by Ro4-1284. Kind of experiment: Antagonism of the ponto-geniculo-occipital (P.G.O.) waves induced by Ro4-1284. The following applies: Felis catus, iv, cats, i.v., read-out: ED50 (effective dose inhibiting by 50% the number of P.G.O. waves). The experiment is classed as in vivo. The protocol:
(§1) The antidepressant effects of the compounds of the invention were investigated by assessing the antagonism of reserpine-induced hypothermia and the antagonism of the ponto-geniculo-occipital waves induced by the compound Ro4-1284 in cats.
This study was performed according to the method of Ruch-Monachon M. A., Jalfre M. and Haefely W. described in Arch. Int. Pharm. Therap., (1976), 219, No. 2, p. 251-346, and it enabled the effective dose (i.v) inhibiting by 50% (ED50) the number of P.G.O waves to be assessed.

Experiment [2] relates to apomorphine-induced rearing-up. Put plainly: Antagonism of apomorphine-induced rearing-up behavior in mice. The experiment is classed as in vivo. The settings on record: apomorphine 0.75 mg.kg^-1 s.c.; for change in vivo at 2.5 mg/kg: read-out: % inhibition of rearing-up, mice, i.p. dose 2.5 mg.kg^-1; for change in vivo at 5 mg/kg: read-out: % inhibition of rearing-up, mice, i.p. dose 5 mg.kg^-1; for % inhibition of rearing-up: mice, hydrochloride. On the procedure:
Studied in the test of antagonism of apomorphine-induced rearing-up following the subcutaneous administration of a dose of 0.75 mg.kg^-1 of this substance in mice, the compounds of general formula I act in a clear-cut manner at doses greater than or equal to 2.5 mg.kg^-1 (i.p.). The same results are observed when the compounds of general formula I are administered orally at a dose of 20 mg.kg^-1. The activity of the compounds was assessed according to the method described by Protais P, Costentin J and Schwartz J. C. in Psychopharmacology (1976), 50, p. 1-6.
(s=significant difference, p<0.05).

In experiment [3] the test system is apomorphine-induced hypothermia. Kind of experiment: Antagonism with respect to apomorphine-induced hypothermia in mice. The experiment is classed as in vivo. The following applies: apomorphine 1 mg.kg^-1 s.c., after 2 hours; for change in vivo at 2.5 mg/kg / change in vivo at 5 mg/kg / change in vivo at 10 mg/kg / change in vivo at 20 mg/kg: Mus musculus, ip, 2 h; for change in vivo at 2.5 mg/kg: read-out: % antagonism of hypothermia, mice, i.p. dose 2.5; for change in vivo at 5 mg/kg: read-out: % antagonism of hypothermia, mice, i.p. dose 5; for change in vivo at 10 mg/kg: read-out: % antagonism of hypothermia, mice, i.p. dose 10; for change in vivo at 20 mg/kg: read-out: % antagonism of hypothermia, mice, i.p. dose 20; for % antagonism of hypothermia: mice, hydrochloride. The protocol:
Testing for an antagonism with respect to apomorphine-induced hypothermia in mice was performed according to the method described by CHERMAT R. and PONCELET M. in J. Pharmac. (1983), 14, No. 1, p. 93-97. The dose of apomorphine administered subcutaneously was 1 mg.kg^-1. Tables VII and VIII show the percentage antagonism of the hypothermia observed after 2 hours.

Experiment [4] concerns reserpine-induced hypothermia. Put plainly: Antagonism of reserpine-induced hypothermia. Type of experiment: in vivo, Swiss CD male mice. The settings on record: mice, reserpine 2.5 mg.kg^-1 i.p. On the procedure: as §1
The study is carried out on Swiss CD male mice (27-28 g). After distribution into groups of 10 animals each, reserpine is injected intraperitoneally at a dose of 2.5 mg.kg^-1. Three hours later, the compounds undergoing trial are administered intraperitoneally. The rectal temperature of the animals is measured one hour and two hours after the second treatment, and compared with the initial temperature To of these same animals, measured immediately before the administration of the compounds undergoing trial.

The test system of experiment [5] is isolation-induced aggression. Kind of experiment: Antiaggressive effects: isolation-induced aggression in mice. The following applies: isolated mice, i.p. Type of experiment: in vivo. From the text: (§2) The antiaggressive effects of the compounds of the invention were investigated by two methods, one of them testing for an inhibition of aggressive behavior in peviously isolated mice (Yen C. Y., Stanger A. L., and Millman N, Arch. Int. Pharmacodyn. Therap. (1959), 123, p. 179-185), and the other in isolated and bulbectomized rats (Garattini S. and Sigg E. B. "Aggressive Behaviour" p. 47-55 Ed. Excerpta Medica Found., Amsterdam, 1969).
(§3) (Tables IX and X, s=significant, p<0.05).

Experiment [6] has as its system aggression of isolated, bulbectomized rats. Kind of experiment: Antiaggressive effects: aggression of isolated, bulbectomized rats. The following applies: i.p. The experiment is classed as in vivo.
Text: as §2, §3

Experiment [7] concerns interoceptive stimulus of apomorphine. Put plainly: Drug discrimination in rats (generalization with apomorphine). The experiment is classed as in vivo. The following applies: 2.5 mg.kg^-1 i.p., 30 minutes before test, hydrochloride. The protocol: Rats were trained to discriminate between the effect of the interoceptive stimulus of apomorphine (0.2 mg.kg^-1 i.p.) and that of physiological saline, according to a principle described by Colpaert F. in "Drug discrimination application in C.N.S. Pharmacology" Ed. Elsevier Biomedical 1982, Amsterdam. […]
Under the experimental conditions employed, the behavior shown by the animals coincides with that noted in the case of administration of apomorphine.

Experiment [8] concerns apomorphine-induced stereotypy. Put plainly: Antagonism of apomorphine-induced stereotypy in rats. Type of experiment: in vivo. The following applies: apomorphine 1.5 mg.kg^-1 i.p., 30 minutes; for % ISS (inhibition (-) or potentiation (+) of the stereotypy score): rats, hydrochloride. On the procedure:
The inhibitory activity of the compounds of the invention with respect to apomorphine- or amphetamine-induced stereotypy in rats was assessed using the scale of scoring of stereotyped movements described by Quinton R. M. and Halliwell G. in Nature (1963), 200, p. 178-179.
Apomorphine or amphetamine was administered to the animals intraperitoneally at a dose of 1.5 mg.kg^-1. The percentage inhibition (-) or potentiation (+) of the stereotypy score (% ISS) shown in Tables IV and V for apomorphine corresponds to a measurement time of 30 minutes. In contrast, the percentage inhibition of the stereotypy score shown in Table VI for amphetamine corresponds to a measurement time of 3 hours. […]

Setting [9] is: 2.5 mg.kg^-1 i.p., hydrochloride.
Where [10] appears, read: 10 mg.kg^-1 i.p., hydrochloride.
The mark [11] stands for this setting: 20 mg.kg^-1 i.p., hydrochloride.

One may read the ED50 as the dose at which the effect has come halfway, by size or by number of responders. On to `CNC1CCc2cc3c(cc2C1)OCC3` (racemic) [Example 9, dl-7-(N-Methylamino)-2,3,5,6,7,8-hexahydronaphtho[2,3-b]furan hydrochloride], for which the ED50 in experiment [1] stood at 0.173 mg/kg. The change in vivo at 2.5 mg/kg in experiment [2] (Mus musculus, ip) is -46%; in experiment [3], -39%. For the same compound, the change in vivo at 5 mg/kg in experiment [2] (Mus musculus, ip) is -65%; in experiment [3], -67%. For the same compound, the change in vivo at 10 mg/kg was -100% in experiment [2] (Mus musculus, ip, read-out: % inhibition of rearing-up, mice, i.p. dose 10 mg.kg^-1) and -86% in experiment [3]. Also, the change in vivo at 20 mg/kg was -100% in experiment [2] (Mus musculus, ip, read-out: % inhibition of rearing-up, mice, i.p. dose 20 mg.kg^-1) and -84% in experiment [3]. Further, the “% inhibition of hypothermia” value in experiment [4] (2.5 mg.kg^-1 i.p.) was -8%; in experiment [4] (5 mg.kg^-1 i.p.) it was “+37%”; in experiment [4] (10 mg.kg^-1 i.p.) it was “+16%”; in experiment [4] (20 mg.kg^-1 i.p.) it was “+11%”. The “% of pairs of mice showing no sign of fighting” value is listed as 67% in experiment [5] (2.5 mg.kg^-1), 56% in experiment [5] (5 mg.kg^-1) and 89% in experiment [5] (10 mg.kg^-1). The “% of rats rendered non-aggressive” value is given as 27% in experiment [6] (2.5 mg.kg^-1) and 58% in experiment [6] (5 mg.kg^-1).
In the case of `NC1CCc2cc3c(cc2C1)OCC3` (stereo not drawn) [Example 4, l-7-Amino-2,3,5,6,7,8-hexahydronaphtho[2,3-b]furan hydrochloride], the “% inhibition of rearing-up” value in experiment [2] (i.p. dose 10 mg.kg^-1) is -24%; in experiment [2] (i.p. dose 20 mg.kg^-1), -86%. For the same compound, in experiment [7], the “% of animals which generalize” value is given as 70%. The “Number of animals showing the effect of generalization with apomorphine” value in experiment [7] is reported as 7/10. Also, the “% antagonism of hypothermia” value in experiment [3] (i.p. dose 2.5) was -8%; in experiment [3] (i.p. dose 5) it was -3%; in experiment [3] (i.p. dose 10), -11%; in experiment [3] (i.p. dose 20) it was -19%. In addition, the “% of pairs of mice showing no sign of fighting” value in experiment [5] (2.5 mg.kg^-1, hydrochloride) is on record as 22%; in experiment [5] (5 mg.kg^-1, hydrochloride), 44%. In addition, the “% of rats rendered non-aggressive” value in experiment [6] (2.5 mg.kg^-1, hydrochloride) is listed as 12%.
Take `CNC1CCc2cc3c(cc2C1)OCC3` (stereo not drawn) [Example 38, d-7-(N-Methylamino)-2,3,5,6,7,8-hexahydronaphtho[2,3-b]furan hydrochloride]: the change in vivo at 5 mg/kg in experiment [8] (Rattus norvegicus, ip, 0.5 h, read-out: % ISS (inhibition (-) or potentiation (+) of the stereotypy score), rats, i.p. dose 5 mg.kg^-1) was -60%; in experiment [2] (Mus musculus, ip), -100%; in experiment [3], -91%. Besides, the change in vivo at 10 mg/kg in experiment [8] (Rattus norvegicus, ip, 0.5 h, read-out: % ISS (inhibition (-) or potentiation (+) of the stereotypy score), rats, i.p. dose 10 mg.kg^-1) was -54%; in experiment [3], -112%. The change in vivo at 2.5 mg/kg in experiment [2] (Mus musculus, ip) is -76%; in experiment [3] it was -48%. For the same compound, the change in vivo at 20 mg/kg in experiment [3] was -119%. The “% inhibition of hypothermia” value in experiment [4] (setting [9]) is given as -28%; in experiment [4] (5 mg.kg^-1 i.p., hydrochloride), -35%; in experiment [4] (setting [10]), -21%. Further, in experiment [5] (5 mg.kg^-1, hydrochloride), the “% of pairs of mice showing no sign of fighting” value came out at 70%. Also, the “% of rats rendered non-aggressive” value was determined as 37% in experiment [6] (2.5 mg.kg^-1) and 75% in experiment [6] (5 mg.kg^-1, hydrochloride).
`CNC1CCc2cc3c(cc2C1)OCC3` (stereo not drawn) [Example 39, l-7-(N-Methylamino)-2,3,5,6,7,8-hexahydronaphtho[2,3-b]furan hydrochloride]: the “% inhibition of hypothermia” value is “+37%” in experiment [4] (setting [9]); “+14%” in experiment [4] (5 mg.kg^-1 i.p., hydrochloride); “+6%” in experiment [4] (setting [10]); “+15%” in experiment [4] (20 mg.kg^-1 i.p.). Moreover, the “% of pairs of mice showing no sign of fighting” value in experiment [5] (2.5 mg.kg^-1) was determined as 70%; in experiment [5] (5 mg.kg^-1, hydrochloride) it was 90%. Also, the “% of rats rendered non-aggressive” value in experiment [6] (5 mg.kg^-1, hydrochloride) is 58%.
`CN(C)C1CCc2cc3c(cc2C1)OCC3` (stereo not drawn) [Example 40, d-7-(N,N-Dimethylamino)-2,3,5,6,7,8-hexahydronaphtho[2,3,-b]furan hydrochloride]: the “% ISS (inhibition (-) or potentiation (+) of the stereotypy score)” value in experiment [8] (i.p. dose 10 mg.kg^-1) is on record as -61%; in experiment [8] (i.p. dose 20 mg.kg^-1), -67%. The change in vivo at 2.5 mg/kg in experiment [2] (Mus musculus, ip) was -75%. Moreover, the change in vivo at 5 mg/kg in experiment [2] (Mus musculus, ip) is -100%. Further, in experiment [3], the change in vivo at 10 mg/kg is -44%. Also, the change in vivo at 20 mg/kg in experiment [3] was -73%. Moreover, the “% inhibition of hypothermia” value in experiment [4] (setting [10]) and in experiment [4] (setting [11]) was “+14%” each time. Also, the “% of pairs of mice showing no sign of fighting” value in experiment [5] (5 mg.kg^-1, hydrochloride) worked out at 22%; in experiment [5] (10 mg.kg^-1, hydrochloride) it was 50%. Also, the “% of rats rendered non-aggressive” value in experiment [6] (10 mg.kg^-1, hydrochloride) is given as 42%.
For `CN(C)C1CCc2cc3c(cc2C1)OCC3` (stereo not drawn) [Example 41, l-7-(N,N-Dimethylamino)-2,3,5,6,7,8-hexahydronaphtho[2,3-b]furan hydrochloride], the “% ISS (inhibition (-) or potentiation (+) of the stereotypy score)” value was “+11%” in experiment [8] (i.p. dose 10 mg.kg^-1) and “+3%” in experiment [8] (i.p. dose 20 mg.kg^-1). Further, the results for the “% inhibition of hypothermia” value in experiment [4] (setting [10]) and in experiment [4] (setting [11]) were “+13%” and “+29%”, respectively. For the same compound, the “% of pairs of mice showing no sign of fighting” value in experiment [5] (5 mg.kg^-1, hydrochloride) was determined as 66%; in experiment [5] (10 mg.kg^-1, hydrochloride), 90%. For the same compound, the “% of rats rendered non-aggressive” value in experiment [6] (10 mg.kg^-1, hydrochloride) was determined as 50%.

For the origin of these results see US4863951A, “Pharmacologically active amino-5,6,7,8-tetrahydronaphtho [2,3-B] furan compounds” (ADIR Et Cie, priority 1987, dated 1989).
